Source: ChEMBL document CHEMBL1201862, “PubChem BioAssay data set” (2004)
One block for each compound: values may come before it. Active and inactive are the calls of the source.

Key:
Prothrombin = Prothrombin (Homo sapiens, UniProt P00734); assay: Thrombin 1536 HTS Dose Response Confirmation. [Related pubchem assays: 1046 (Thrombin 1536 HTS; hits were confirmed in this assay)]; type: functional
[1] = Luminescence Cell-Based Dose Retest to Confirm Inhibitors of Cancer Stem Cells. [Related pubchem assays (depositor defined):AID2717, AID2721]; type: functional; conditions: Homo sapiens
Aminopeptidase N = biological target: T1, Aminopeptidase N (Plasmodium falciparum FcB1/Columbia, UniProt O96935); assay: P. falciparum M1AAP inhibitors, biochemical, fluorogenic H-Leu-NHMec substrate, 1536-well (AID 1445); parameters: species or system Plasmodium falciparum 3D7, 3D7
T1 sequence (O96935 whole entry): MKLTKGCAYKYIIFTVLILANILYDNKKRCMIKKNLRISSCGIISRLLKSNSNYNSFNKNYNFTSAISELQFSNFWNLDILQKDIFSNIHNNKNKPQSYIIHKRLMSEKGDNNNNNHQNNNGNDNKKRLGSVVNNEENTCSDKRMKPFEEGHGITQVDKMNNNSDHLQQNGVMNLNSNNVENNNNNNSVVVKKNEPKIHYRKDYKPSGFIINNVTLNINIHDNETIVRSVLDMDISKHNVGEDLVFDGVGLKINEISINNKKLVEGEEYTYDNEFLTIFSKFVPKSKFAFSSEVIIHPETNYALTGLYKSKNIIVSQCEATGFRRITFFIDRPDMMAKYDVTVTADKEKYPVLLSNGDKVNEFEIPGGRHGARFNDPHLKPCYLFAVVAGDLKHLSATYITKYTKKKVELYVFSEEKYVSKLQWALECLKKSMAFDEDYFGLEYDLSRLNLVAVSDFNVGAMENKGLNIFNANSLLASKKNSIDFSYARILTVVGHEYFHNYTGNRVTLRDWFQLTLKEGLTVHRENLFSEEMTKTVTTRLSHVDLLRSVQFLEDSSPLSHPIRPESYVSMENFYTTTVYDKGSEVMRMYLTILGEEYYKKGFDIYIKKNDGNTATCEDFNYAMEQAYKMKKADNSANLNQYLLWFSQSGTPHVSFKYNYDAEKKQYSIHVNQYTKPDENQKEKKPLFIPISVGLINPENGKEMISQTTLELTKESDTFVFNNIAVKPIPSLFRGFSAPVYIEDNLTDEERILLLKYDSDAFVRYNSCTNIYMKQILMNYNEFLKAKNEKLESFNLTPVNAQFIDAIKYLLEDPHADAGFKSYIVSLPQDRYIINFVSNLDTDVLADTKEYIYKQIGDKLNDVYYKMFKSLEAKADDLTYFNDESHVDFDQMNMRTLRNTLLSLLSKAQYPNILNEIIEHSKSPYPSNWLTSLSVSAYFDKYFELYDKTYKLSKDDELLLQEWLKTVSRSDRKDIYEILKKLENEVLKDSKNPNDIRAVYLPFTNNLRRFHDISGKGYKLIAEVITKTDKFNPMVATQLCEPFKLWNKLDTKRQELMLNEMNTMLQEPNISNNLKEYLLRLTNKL

[2] = biological target: Peroxisome proliferator-activated receptor gamma/Nuclear receptor coactivator 2 (Homo sapiens, UniProt P37231); type: functional;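 also: agonist potency for raising coactivator recruitment to the receptor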
[3] = biological target: Peroxisome proliferator-activated receptor gamma/Nuclear receptor coactivator 1 (Homo sapiens, UniProt P37231); type: functional;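 also: agonist potency as compounds enhance coactivator SRC-1 recruitment to PPARgamma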
[4] = biological target: Peroxisome proliferator-activated receptor gamma/Nuclear receptor coactivator 3 (Homo sapiens, UniProt P37231); type: functional;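 also: agonist potency for raising coactivator recruitment to the receptor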
[5] = biological target: Glyceraldehyde-3-phosphate dehydrogenase (Homo sapiens, UniProt P04406)
[6] = biological target: T2, Alkaline phosphatase, tissue-nonspecific isozyme (Homo sapiens, UniProt P05186); assay: human TNAP enzyme inhibitors, SAR follow-up, biochemical, luminescent, dose response (AID 1056)
T2 sequence (P05186 whole entry): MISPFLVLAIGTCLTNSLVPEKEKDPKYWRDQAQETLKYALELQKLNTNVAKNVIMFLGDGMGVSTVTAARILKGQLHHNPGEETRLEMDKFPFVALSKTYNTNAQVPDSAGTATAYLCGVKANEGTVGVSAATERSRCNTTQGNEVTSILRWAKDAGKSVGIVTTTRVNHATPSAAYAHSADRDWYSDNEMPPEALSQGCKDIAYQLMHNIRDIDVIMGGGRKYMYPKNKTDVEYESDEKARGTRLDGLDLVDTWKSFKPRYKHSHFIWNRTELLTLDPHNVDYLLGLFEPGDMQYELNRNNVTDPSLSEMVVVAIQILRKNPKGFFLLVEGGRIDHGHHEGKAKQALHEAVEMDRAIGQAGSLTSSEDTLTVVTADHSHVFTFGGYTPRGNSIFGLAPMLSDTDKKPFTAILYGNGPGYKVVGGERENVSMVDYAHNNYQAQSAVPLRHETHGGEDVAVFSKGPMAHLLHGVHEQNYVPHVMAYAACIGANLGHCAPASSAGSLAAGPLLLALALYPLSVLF

[7] = inhibitors of Vif binding to APOBEC3G peptide, primary screen, biochemical, TR-FRET, GST-Vif 1-94, biotin-A3G peptide, dose response retest (AID 1117319); type: functional;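 also: TR-FRET signal of purified GST-Vif binding a biotinylated A3G peptide; inhibitors lower the FRET signal by blocking Vif and A3G binding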
[8] = biological target: T3, Heat shock factor protein 1 (Mus musculus, UniProt P38532); assay: HSF1 potentiators in luciferase reporter cells, confirmation, cell-based, NIH3T3, luminescence, dose retest (AID 435004); type: functional;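 also: stress induced by proteasome inhibitor MG132 added 30 min after compound; luciferase reporter driven by HSF1 response element in NIH3T3 cells; actives raise luminescence as potentiators of the MG132 stress response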
T3 sequence (P38532 whole entry): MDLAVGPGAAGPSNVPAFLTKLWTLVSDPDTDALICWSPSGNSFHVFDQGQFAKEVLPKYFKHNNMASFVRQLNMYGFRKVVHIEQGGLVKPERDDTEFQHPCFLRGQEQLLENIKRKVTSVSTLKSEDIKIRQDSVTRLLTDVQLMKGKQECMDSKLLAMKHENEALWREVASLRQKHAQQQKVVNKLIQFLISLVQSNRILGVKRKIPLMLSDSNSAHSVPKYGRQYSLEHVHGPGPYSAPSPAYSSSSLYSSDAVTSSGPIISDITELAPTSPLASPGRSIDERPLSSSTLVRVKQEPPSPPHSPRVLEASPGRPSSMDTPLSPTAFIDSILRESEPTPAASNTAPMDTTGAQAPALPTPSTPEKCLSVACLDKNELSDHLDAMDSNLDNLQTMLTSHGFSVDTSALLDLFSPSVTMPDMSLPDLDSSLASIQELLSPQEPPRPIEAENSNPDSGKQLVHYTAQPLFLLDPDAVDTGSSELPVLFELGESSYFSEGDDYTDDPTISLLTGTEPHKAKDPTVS

[9] = HEp-2 cell cytotoxicity, dose response, cytotoxicity control for RSV inhibitor project, HTS (AID 2410); type: functional; conditions: human respiratory syncytial virus
[10] = biological target: Mitogen-activated protein kinase 10 (Homo sapiens, UniProt P53779); assay: Dose response biochemical screening assay for inhibitors of c-Jun N-Terminal Kinase 3 (JNK3). [Related pubchem assays: 746 ]
HeLa = assay: HeLa cell cytotoxicity, dose response, cytotoxicity control for MITF activator project, CellTiter-Glo luminescence, cherry-pick samples (AID 540259); type: functional, cell-based; conditions: Homo sapiens
Protein skinhead-1 = biological target: T4, Protein skinhead-1 (Caenorhabditis elegans, UniProt P34707); type: functional
T4 sequence (P34707 whole entry): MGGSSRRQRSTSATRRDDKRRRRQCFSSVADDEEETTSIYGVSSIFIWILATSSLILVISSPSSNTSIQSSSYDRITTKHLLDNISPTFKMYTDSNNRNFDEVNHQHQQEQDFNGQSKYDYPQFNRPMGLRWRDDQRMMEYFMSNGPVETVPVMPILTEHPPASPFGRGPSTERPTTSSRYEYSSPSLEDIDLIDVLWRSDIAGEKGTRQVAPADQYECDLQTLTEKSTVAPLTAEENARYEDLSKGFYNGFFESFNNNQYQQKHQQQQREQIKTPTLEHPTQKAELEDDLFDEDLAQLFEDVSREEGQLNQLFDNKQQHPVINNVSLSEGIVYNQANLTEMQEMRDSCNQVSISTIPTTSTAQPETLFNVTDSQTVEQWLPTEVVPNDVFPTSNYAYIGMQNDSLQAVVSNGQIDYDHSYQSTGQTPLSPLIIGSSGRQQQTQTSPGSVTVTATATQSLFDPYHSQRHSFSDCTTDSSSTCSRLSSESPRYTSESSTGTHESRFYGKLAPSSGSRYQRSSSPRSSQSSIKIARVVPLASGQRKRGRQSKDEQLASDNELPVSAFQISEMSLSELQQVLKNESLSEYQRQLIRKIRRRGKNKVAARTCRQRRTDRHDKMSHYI

fMet-Leu-Phe receptor = biological target: T5, fMet-Leu-Phe receptor (Homo sapiens, UniProt P21462); assay: FPR ligands, dose response (AID 519); type: functional
T5 sequence (P21462 whole entry): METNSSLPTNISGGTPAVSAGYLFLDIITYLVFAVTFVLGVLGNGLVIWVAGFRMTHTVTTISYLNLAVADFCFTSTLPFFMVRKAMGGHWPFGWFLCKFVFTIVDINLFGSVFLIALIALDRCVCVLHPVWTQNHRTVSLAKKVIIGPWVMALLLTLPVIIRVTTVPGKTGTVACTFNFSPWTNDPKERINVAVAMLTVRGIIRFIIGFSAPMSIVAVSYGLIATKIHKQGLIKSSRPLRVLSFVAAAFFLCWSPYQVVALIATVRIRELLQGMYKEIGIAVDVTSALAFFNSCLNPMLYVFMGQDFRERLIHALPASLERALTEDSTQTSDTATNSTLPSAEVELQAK

Cytochrome P450 2C9 = Cytochrome P450 2C9 (Homo sapiens, UniProt P11712)

Sequence of Mitogen-activated protein kinase 10 (P53779 whole entry): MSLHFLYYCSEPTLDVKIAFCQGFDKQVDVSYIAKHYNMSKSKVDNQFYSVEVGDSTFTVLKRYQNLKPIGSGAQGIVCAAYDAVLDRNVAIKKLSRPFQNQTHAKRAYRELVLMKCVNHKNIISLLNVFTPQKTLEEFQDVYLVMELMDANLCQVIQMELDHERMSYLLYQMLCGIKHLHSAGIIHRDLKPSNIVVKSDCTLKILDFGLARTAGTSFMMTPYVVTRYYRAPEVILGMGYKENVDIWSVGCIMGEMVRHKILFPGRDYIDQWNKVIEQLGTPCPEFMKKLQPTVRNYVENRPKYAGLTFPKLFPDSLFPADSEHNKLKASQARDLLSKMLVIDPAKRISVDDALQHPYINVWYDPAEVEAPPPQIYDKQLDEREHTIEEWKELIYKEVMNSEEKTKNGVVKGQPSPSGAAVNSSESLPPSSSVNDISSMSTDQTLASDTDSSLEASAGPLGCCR
Sequence of Peroxisome proliferator-activated receptor gamma/Nuclear receptor coactivator 3 (P37231 whole entry): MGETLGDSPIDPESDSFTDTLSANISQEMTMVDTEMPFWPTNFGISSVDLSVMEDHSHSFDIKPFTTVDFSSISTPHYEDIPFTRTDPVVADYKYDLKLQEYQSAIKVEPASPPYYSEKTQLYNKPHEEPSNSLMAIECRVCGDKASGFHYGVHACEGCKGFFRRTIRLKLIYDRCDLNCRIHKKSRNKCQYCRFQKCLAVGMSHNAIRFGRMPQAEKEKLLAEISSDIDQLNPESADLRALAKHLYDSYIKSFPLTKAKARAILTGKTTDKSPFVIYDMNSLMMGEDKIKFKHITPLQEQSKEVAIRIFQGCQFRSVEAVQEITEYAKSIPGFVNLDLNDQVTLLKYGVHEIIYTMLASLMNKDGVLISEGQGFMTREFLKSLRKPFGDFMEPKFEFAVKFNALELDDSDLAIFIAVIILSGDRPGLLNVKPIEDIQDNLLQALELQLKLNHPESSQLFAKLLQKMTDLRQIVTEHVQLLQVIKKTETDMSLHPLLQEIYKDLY
Sequence of Peroxisome proliferator-activated receptor gamma/Nuclear receptor coactivator 3 (Q9Y6Q9 whole entry, further chain): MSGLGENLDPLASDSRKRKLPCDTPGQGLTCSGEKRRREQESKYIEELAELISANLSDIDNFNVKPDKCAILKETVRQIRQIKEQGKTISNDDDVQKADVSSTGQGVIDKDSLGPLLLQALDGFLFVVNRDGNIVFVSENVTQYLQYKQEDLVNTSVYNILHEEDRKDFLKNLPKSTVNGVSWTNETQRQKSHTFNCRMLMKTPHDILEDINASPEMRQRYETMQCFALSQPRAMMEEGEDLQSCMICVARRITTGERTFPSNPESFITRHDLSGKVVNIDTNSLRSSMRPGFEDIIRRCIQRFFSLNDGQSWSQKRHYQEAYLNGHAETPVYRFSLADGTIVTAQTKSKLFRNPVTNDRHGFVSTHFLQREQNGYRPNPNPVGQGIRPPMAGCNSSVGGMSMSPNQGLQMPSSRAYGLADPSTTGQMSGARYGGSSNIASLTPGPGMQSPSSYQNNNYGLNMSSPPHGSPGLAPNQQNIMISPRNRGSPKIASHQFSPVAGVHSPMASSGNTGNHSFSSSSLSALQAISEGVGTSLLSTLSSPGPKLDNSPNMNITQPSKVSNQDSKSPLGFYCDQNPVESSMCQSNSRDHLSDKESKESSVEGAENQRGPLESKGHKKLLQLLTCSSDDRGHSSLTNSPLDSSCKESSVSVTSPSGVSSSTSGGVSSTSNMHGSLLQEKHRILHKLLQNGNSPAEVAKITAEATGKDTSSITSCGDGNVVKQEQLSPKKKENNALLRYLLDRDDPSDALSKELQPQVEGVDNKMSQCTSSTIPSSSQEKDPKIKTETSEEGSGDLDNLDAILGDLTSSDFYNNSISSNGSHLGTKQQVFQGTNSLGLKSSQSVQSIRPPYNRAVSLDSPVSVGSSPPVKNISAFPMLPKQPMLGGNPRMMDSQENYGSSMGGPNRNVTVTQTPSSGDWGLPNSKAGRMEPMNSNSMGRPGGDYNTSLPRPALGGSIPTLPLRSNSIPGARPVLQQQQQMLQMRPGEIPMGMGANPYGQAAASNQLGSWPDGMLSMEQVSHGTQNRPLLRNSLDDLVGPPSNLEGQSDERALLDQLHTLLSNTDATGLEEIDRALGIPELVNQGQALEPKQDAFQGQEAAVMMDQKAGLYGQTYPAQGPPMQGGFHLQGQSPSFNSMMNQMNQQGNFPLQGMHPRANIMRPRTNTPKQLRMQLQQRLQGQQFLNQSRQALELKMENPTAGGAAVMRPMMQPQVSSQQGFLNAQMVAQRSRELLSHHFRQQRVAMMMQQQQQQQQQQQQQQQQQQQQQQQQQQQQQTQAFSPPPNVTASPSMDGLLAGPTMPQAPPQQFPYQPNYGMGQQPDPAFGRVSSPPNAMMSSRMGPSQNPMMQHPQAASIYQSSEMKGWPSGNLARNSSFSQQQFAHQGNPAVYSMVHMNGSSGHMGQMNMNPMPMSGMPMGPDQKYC
Sequence of Peroxisome proliferator-activated receptor gamma/Nuclear receptor coactivator 1 (P37231 whole entry): as the sequence (P37231 whole entry) above
Sequence of Peroxisome proliferator-activated receptor gamma/Nuclear receptor coactivator 1 (Q15788 whole entry, further chain): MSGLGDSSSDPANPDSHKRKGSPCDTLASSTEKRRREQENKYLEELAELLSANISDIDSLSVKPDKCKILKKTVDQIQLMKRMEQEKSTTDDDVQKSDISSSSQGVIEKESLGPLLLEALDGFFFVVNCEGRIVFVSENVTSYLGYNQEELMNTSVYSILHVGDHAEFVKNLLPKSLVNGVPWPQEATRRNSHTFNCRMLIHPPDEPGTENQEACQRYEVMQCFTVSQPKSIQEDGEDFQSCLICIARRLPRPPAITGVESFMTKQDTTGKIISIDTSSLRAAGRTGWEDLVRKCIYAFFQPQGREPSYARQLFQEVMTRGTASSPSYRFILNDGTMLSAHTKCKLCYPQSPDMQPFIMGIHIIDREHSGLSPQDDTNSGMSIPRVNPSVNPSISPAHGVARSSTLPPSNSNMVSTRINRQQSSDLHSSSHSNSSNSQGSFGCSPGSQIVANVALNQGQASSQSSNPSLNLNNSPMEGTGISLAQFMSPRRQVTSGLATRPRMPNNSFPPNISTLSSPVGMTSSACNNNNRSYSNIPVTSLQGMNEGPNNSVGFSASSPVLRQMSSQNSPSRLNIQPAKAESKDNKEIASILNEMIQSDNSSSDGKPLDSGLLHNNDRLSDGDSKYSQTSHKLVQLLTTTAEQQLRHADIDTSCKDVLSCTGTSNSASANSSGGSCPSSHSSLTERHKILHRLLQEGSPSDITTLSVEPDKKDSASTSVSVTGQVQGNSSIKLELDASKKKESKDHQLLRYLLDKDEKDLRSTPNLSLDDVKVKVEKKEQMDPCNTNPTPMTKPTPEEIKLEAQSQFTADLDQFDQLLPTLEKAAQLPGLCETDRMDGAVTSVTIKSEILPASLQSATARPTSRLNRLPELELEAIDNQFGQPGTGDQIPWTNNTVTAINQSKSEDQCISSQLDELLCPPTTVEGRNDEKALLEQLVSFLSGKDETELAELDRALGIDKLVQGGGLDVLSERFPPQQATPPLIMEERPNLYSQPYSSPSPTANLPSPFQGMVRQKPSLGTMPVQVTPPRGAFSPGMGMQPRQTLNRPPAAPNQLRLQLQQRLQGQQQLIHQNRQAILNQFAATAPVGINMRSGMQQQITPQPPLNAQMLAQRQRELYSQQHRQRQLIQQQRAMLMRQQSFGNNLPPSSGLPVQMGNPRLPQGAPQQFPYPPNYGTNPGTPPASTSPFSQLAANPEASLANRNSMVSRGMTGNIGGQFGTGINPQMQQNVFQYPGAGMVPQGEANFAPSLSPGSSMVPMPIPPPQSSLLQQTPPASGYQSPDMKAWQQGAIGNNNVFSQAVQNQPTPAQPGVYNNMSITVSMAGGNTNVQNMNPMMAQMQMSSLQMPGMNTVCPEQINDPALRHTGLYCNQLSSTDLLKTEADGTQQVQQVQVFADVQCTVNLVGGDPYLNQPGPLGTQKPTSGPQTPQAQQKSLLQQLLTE
Sequence of Glyceraldehyde-3-phosphate dehydrogenase (P04406 whole entry): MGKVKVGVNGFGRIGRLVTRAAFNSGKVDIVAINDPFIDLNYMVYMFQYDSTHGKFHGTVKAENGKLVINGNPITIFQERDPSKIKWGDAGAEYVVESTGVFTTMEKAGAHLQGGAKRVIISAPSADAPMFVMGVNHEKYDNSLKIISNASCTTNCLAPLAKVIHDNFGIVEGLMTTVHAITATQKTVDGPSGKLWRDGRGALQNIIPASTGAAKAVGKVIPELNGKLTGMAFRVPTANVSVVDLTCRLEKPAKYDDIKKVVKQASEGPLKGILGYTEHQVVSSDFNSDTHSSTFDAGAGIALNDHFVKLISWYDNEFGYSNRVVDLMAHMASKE

Compound: CC1(C)CN(c2ccccc2)N(C(=O)c2ccc(F)cc2)C1=O
IC50 (Prothrombin): 0.837 µM (active)
AC50 [1]: 3.63 µM (active)

Compound: CNc1ccc(/C=C(\CCC(=O)O)c2nc3ccccc3s2)cc1[N+](=O)[O-]
IC50 (Aminopeptidase N): 43.3 µM (active)

Compound: COc1ccc(C2(CNC(=O)/C=C\c3ccco3)CCCC2)cc1OC
EC50 [2]: > 79.4 µM (not active)
EC50 [3]: > 79.4 µM (not active)
EC50 [4]: > 79.4 µM (not active)

Compound: NNC(=O)c1cc(-c2cc(F)c(F)cc2F)[nH]n1
IC50 [5]: > 10 µM (inconclusive)
IC50 [6]: 0.316 µM (active)

Compound: Oc1c(C(c2ccccc2)N2CCN(Cc3ccccc3)CC2)sc2ncnn12 (centres undefined)
IC50 [7]: > 100 µM (active)

Compound: COc1cccc2sc(N3CCN(c4nc5ccccc5s4)CC3)nc12
EC50 [2]: 19.1 µM (not active)
EC50 [3]: 13.4 µM (not active)
EC50 [4]: 22.9 µM (not active)

Compound: Cc1ccc(N2C(=O)C(Cl)=C(N(C)C)C2=O)cc1
IC50 [5]: > 50 µM (inconclusive)

Compound: COc1cc(CN/C(C)=C(\C#N)C(N)=O)cc(OC)c1OC
IC50 [10]: 7.16 µM (active)

Compound: CCCCN1C(=O)/C(=C/C=C2\SCCN2C)SC1=S
AC50 (HeLa): 39.1 µM (active)

Compound: c1ccc(-c2noc(COc3ccc4c(c3)OCO4)n2)cc1
AC50 (HeLa): 339 µM (active)

Compound: COc1ccccc1NS(=O)(=O)c1ccc(Cl)c(NC(=O)C(C)N2C(=O)c3ccccc3C2=O)c1 (centres undefined)
IC50 (Aminopeptidase N): 26.9 µM (active)

Compound: O=C(NC1CCCC1)c1cccnc1N1CCCCCC1
IC50 [10]: > 93.1 µM (not active)
AC50 (Cytochrome P450 2C9): 35.5 µM (inconclusive)

Compound: O=C(Nc1ccc(Cl)c(Cl)c1)Nc1ccccc1O
AC50 [1]: 5.67 µM (active)
AC50 (HeLa): 49.7 µM (active)

Compound: Oc1[nH]c2ccccc2c1/C=N/c1ccc2c(c1)OCCO2
IC50 [10]: 89.9 µM (not active)

Compound: COc1ccc(/C=N\NS(=O)(=O)c2ccc(Cl)cc2)cc1COc1ccccc1[N+](=O)[O-]
IC50 (Prothrombin): > 50 µM (not active)

Second part, led by results:

IC50 (Prothrombin): > 50 µM (not active)
Compound: O=C(CSc1nc(O)c2cnn(-c3ccc(F)cc3)c2n1)N1CCCCCC1

IC50 [5]: > 100 µM (not active)
IC50 [6]: > 100 µM (inactive)
Compound: Cc1c(-c2ccccc2)n[nH]c1C(=O)O

EC50 [2]: > 79.4 µM (not active)
EC50 [3]: > 79.4 µM (not active)
EC50 [4]: > 79.4 µM (not active)
EC50 [8]: > 260 µM (inactive)
Compound: Cc1ccc(-n2c(C)cc(C(=O)COc3c(CO)cc(F)cc3CO)c2C)cc1C

IC50 [7]: > 100 µM (active)
Compound: Cn1c(CN2CCOCC2)nc2cc(NC(=O)c3ccc(F)cc3)ccc21

EC50 [2]: > 79.4 µM (not active)
EC50 [3]: > 79.4 µM (not active)
EC50 [4]: > 79.4 µM (not active)
Compound: Cc1ccccc1CC1(CO)CCCN(C(=O)CCC(=O)c2ccccc2)C1 (centres undefined)
CC50 [9]: 28.5 µM (active)

IC50 (Protein skinhead-1): > 100 µM (inactive)
Ki (fMet-Leu-Phe receptor): 9.7 µM (active)
Compound: COC(=O)c1[nH]c(C)c(C(=O)C2=C(O)C(=O)N(CCCN3CCOCC3)C2c2ccccn2)c1C (centres undefined)

IC50 [10]: 39.8 µM (not active)
Compound: COc1ccc(C(C)=O)cc1COC(=O)c1c(C)noc1C

IC50 [5]: > 50 µM (inconclusive)
Compound: C[C@H]1CN(C2=C(Cl)C(=O)N(c3cccc(C(F)(F)F)c3)C2=O)CCN1

EC50 [2]: > 79.4 µM (not active)
EC50 [3]: > 79.4 µM (not active)
EC50 [4]: > 79.4 µM (not active)
Compound: CCOC(=O)n1cc(-c2cnc(CNC(=O)C(C)(c3ccccc3)c3ccccc3)o2)c2ccccc21

IC50 (Prothrombin): 5.95 µM (active)
Compound: COc1ccccc1CNC(=O)c1cn(C)c2ccc(S(=O)(=O)N3CCCC3)cc2c1=O

IC50 [6]: 93.4 µM (active)
Compound: Cn1c(SCC(=O)c2ccc(O)c(O)c2)nnc1-c1ccccc1
